The values that follow come from publication PMC8781192, “An In Silico and an In Vitro Inhibition Analysis of Glycogen Phosphorylase by Flavonoids, Styrylchromones, and Pyrazoles” (Nutrients, 2022).

Assay [1] deals with T1, rabbit mGPa (Oryctolagus cuniculus, UniProt P00489).
T1 construct: purchased Creative Enzymes
T1 sequence (P00489 2-843 limits assumed): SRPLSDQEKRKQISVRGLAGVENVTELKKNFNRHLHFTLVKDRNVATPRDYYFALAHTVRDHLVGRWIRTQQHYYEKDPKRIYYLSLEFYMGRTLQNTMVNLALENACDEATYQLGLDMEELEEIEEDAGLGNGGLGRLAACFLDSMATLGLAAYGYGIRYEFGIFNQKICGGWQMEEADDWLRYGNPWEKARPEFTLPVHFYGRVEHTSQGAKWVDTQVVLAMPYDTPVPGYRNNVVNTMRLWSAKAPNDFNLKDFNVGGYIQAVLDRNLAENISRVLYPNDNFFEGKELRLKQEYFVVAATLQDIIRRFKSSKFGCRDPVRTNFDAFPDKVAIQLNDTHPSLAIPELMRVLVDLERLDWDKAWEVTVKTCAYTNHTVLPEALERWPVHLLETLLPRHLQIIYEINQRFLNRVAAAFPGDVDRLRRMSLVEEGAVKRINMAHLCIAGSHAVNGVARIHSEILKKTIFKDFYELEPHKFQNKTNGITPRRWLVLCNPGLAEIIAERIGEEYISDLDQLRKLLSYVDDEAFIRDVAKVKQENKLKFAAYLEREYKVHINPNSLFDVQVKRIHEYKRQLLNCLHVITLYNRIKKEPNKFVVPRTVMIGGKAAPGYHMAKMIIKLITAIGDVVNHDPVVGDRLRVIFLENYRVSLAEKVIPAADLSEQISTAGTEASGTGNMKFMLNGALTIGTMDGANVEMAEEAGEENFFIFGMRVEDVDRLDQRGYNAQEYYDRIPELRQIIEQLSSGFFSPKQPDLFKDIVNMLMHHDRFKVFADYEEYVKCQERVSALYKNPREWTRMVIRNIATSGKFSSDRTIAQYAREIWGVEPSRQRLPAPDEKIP
The assay is described as follows: In vitro glycogen phosphorylase inhibition assay (direction of glycogen synthesis, colorimetric phosphate). Format: biochemical. Particulars: no glucose; mean ± SEM; read-out: GPa IC50 value. The procedure: The GP activity was measured using a previously optimized and validated method. In each assay, GP activity was measured by the direction of glycogen synthesis, which involved monitoring the colorimetric determination of inorganic phosphate deriving from glucose 1-phosphate. […] The enzymatic reaction was then started with the addition of a 50 mM HEPES buffer solution, with a pH of 7.2, containing 100 mM KCl, 2.5 mM MgCl2, 0.25 mM glucose 1-phosphate, and 0.25 mg/mL glycogen incubated for 30 min at 37 °C. After this incubation time, the reagent for colorimetric phosphate quantitation, BIOMOL® Green, was added to the reaction mixture. The reaction was monitored in a microplate reader (Synergy HT, BioTek Instruments, Winooski, VT, USA) at 620 nm.

Assay [2] concerns the target T1, rabbit mGPa. The assay is described as follows: In vitro effect of glucose on inhibitor potency (GPa inhibition with 0, 5, 10 mM glucose). Particulars: for IC50: mean ± SEM; for inhibition at 40 µM: at 40 μM (highest concentration tested), read-out: GPa inhibitory activity (%). In kind it is biochemical. As to the method: The method was performed as described in Section 2.2, with slight modifications. […] The enzymatic reaction was then started with the addition of a 50 mM HEPES buffer solution with a pH of 7.2 containing 100 mM KCl, 2.5 mM MgCl2, 0.25 mM glucose 1-phosphate, and 0.25 mg/mL glycogen. This buffer was used without glucose, or it was enriched with 5 and 10 mM of glucose and was incubated for 30 min at 37 °C in the reaction mixture. After this incubation time, BIOMOL® Green was added, and the reaction was monitored in a microplate reader (Synergy HT, BioTek Instruments, Winooski, VT, USA) at 620 nm.

Assay [3] concerns rabbit mGPa and mGPb, together with human lGPa. Further details: method as in PMID 32771768. The settings on record: direction of glycogen synthesis; cited from earlier work.
For a further assay, the system named is GP. Further details: method as in PMID 18494482. Particulars: cited from earlier work.
For assay [4], the target named is T1, rabbit mGPa. Further details: method as in PMID 16317787. The settings on record: direction of glycogen breakdown; cited from earlier work.
The test system of a further assay is GPb. Further details: method as in PMID 16317787. The settings on record: direction of glycogen breakdown; cited from earlier work.
[5] abbreviates: 0 mM of glucose, read-out: GPa IC50 value.
The mark [6] stands for this setting: 5 mM of glucose, read-out: GPa IC50 value.
The mark [7] stands for this setting: 10 mM of glucose, read-out: GPa IC50 value.

Structures are written as SMILES. Read-outs that look alike come from different tables or passages of the source. Some results are limits rather than exact numbers.

Consider `CN(C)C(=O)[C@H](O)[C@H](Cc1ccccc1)NC(=O)c1cc2cc(Cl)ccc2[nH]1` [CP-91149, 5-chloro-N-[(1S,2R)-3-(dimethylamino)-2-hydroxy-3-oxo-1-(phenylmethyl)propyl]-1H-indole-2-carboxamide, reference compound], for which the IC50 turned out to be 0.58 ± 0.09 µM at rabbit mGPa [1]; 0.58 ± 0.09 µM at rabbit mGPa [2] (GPa IC50 value, 0 mM of glucose); 0.39 ± 0.05 µM on rabbit mGPa [2] (GPa IC50 value, 5 mM of glucose); 0.22 ± 0.04 µM at rabbit mGPa [2] (GPa IC50 value, 10 mM of glucose).
`O=c1cc(/C=C/C=C/c2ccc(O)c(O)c2)oc2cc(O)ccc12` [Compound 32]: the IC50 was 16.7 ± 1.5 µM at rabbit mGPa [1], 16.7 ± 1.5 µM at rabbit mGPa [2] (setting [5]), 13.4 ± 1.6 µM at rabbit mGPa [2] (setting [6]) and 10.8 ± 1.2 µM on rabbit mGPa [2] (setting [7]).
`COc1cc(O)c2c(=O)cc(/C=C/C=C/c3ccc(O)c(O)c3)oc2c1` [Compound 33]: the IC50 on rabbit mGPa [1] and at rabbit mGPa [2] (setting [5]) was 15.9 ± 1.1 µM throughout. For the same molecule, the inhibition at 40 µM at rabbit mGPa [2] (5 mM of glucose) is 53.9 ± 2.5%; at rabbit mGPa [2] (10 mM of glucose), less than 30%.
For the molecule `O=c1cc(-c2ccccc2)oc2cc(O)cc(O)c12` [Compound 38, Chrysin], in assay [3], the “potency relative to flavonoid 45, quercetin” value is reported as roughly 10 fold. Also, the IC50 in the assay on GP is greater than 200 µM; at rabbit mGPa [4], 27.5 µM; in the assay with GPb it was 15.3 ± 1 µM; on rabbit mGPa [1], 19.3 ± 1.5 µM; at rabbit mGPa [2] (setting [5]), 19.3 ± 1.5 µM; at rabbit mGPa [2] (setting [6]), 8.8 ± 0.8 µM. Also, the IC50 at rabbit mGPa [2] (setting [7]) was determined as 5.2 ± 0.3 µM.
`O=c1cc(-c2ccccc2)oc2c(O)c(O)cc(O)c12` [Compound 46, Norwogonin]: the IC50 was 13.2 ± 1.4 µM at rabbit mGPa [1], 13.2 ± 1.4 µM on rabbit mGPa [2] (setting [5]), 8.9 ± 1 µM on rabbit mGPa [2] (setting [6]) and 3.7 ± 0.5 µM at rabbit mGPa [2] (setting [7]).
For `O=c1cc(-c2ccccc2)oc2cc(O)c(O)c(O)c12` [Compound 47, Baicalein], the IC50 on rabbit mGPa [4] was 11.2 ± 1.5 µM; in the assay on GPb, 10.2 ± 1.2 µM; at rabbit mGPa [1] it was 23.5 ± 2.9 µM.
